Source: PubChem BioAssay (NCI)
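How tested: cells in 96-well plates exposed to compound for 48 hours at five concentrations. Definition used: TGI = concentration required for complete inhibition of growth.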 *1 amine or outer side, *2 acyl side, *3 side chain or, on linkers, in order; H or OH if unused. Where a SMILES comes first, the peptide text is derived from it. Bridges are numbered along the chain shown (N, C = ends). Roman numbers before positions name the chains, in order. [ ]: non-standard residue; d: D form. Actinocin(9to1) = Cc1c2oc3c(C)ccc(C(=O)[*:1])c3nc-2c(C(=O)[*:2])c(N)c1=O; NMeH = CN[CH](Cc1c[nH]cn1)C(=O)O; Sar = CNCC(=O)O

How the values were obtained:
Test in all cases: growth of human tumour cells (NCI), 48 h
NCI-H226 lung = system: NCI-H226 lung
CAKI-1 renal = system: CAKI-1 renal
M14 melanoma = system: M14 melanoma
MDA-MB-231 breast = system: MDA-MB-231 breast
HCT-15 colon = system: HCT-15 colon
OVCAR-8 ovarian = system: OVCAR-8 ovarian
SK-OV-3 ovarian = system: SK-OV-3 ovarian
HOP-62 NSCLC = system: HOP-62 NSCLC
PC-3 prostate = system: PC-3 prostate
EKVX NSCLC = system: EKVX NSCLC
A549 NSCLC = system: A549 NSCLC

Compound	TGI (NCI-H226 lung)	TGI (CAKI-1 renal)	TGI (M14 melanoma)	TGI (MDA-MB-231 breast)	TGI (HCT-15 colon)	TGI (OVCAR-8 ovarian)	TGI (SK-OV-3 ovarian)	TGI (HOP-62 NSCLC)	TGI (PC-3 prostate)	TGI (EKVX NSCLC)	TGI (A549 NSCLC)
C=C(C(=O)O[C@H]1C/C(C)=C/CC/C(CO)=C/[C@H]2C(=O)OC(=C)[C@H]12)C(O)CO (some centres undefined)	37.7 µM	9.1 µM	28.5 µM	33.3 µM	24.4 µM	40.1 µM	35.1 µM	> 59.9 µM	22.2 µM	36.5 µM	49.8 µM
COc1cc2ccc(C(=O)NCCCNC(=O)c3ccc4cc(OC)c(OC)cc4c3)cc2cc1OC	> 100 µM	> 100 µM	> 100 µM	> 100 µM	> 100 µM	> 100 µM	> 100 µM	> 100 µM	> 100 µM	> 100 µM	> 100 µM
Cc1c2oc3c(C)ccc(C(=O)NC4C(=O)NC(C(C)C)C(=O)N5CCCC5C(=O)N(C)CC(=O)N(C)C(Cc5cnc[nH]5)C(=O)OC4C)c3nc-2c(C(=O)NC2C(=O)NC(C(C)C)C(=O)N3CCCC3C(=O)N(C)CC(=O)N(C)C(Cc3cnc[nH]3)C(=O)OC2C)c(N)c1=O (centres undefined) (I: TVP[Sar][NMeH] / II: TVP[Sar][NMeH]; ester I:1-I:C, II:1-II:C; linker I:N-II:N via Actinocin(9to1); configuration not given here)	> 100 µM	> 100 µM	> 100 µM	> 100 µM	> 100 µM	> 100 µM	> 100 µM	> 100 µM	> 100 µM	> 100 µM	> 100 µM
N#Cc1c(-c2ccc(Cl)cc2)cc(-c2ccc(Nc3ccnc4cc(Cl)ccc34)cc2)[nH]c1=O	> 100 µM	> 100 µM	> 100 µM	> 67.4 µM	> 100 µM	> 100 µM	> 79 µM	> 62.8 µM	> 100 µM	> 100 µM	> 100 µM
COc1ccc(-n2c(=O)c3[nH]c(=S)[nH]c3n(-c3ccc(OC)cc3)c2=S)cc1	> 100 µM	> 100 µM	> 100 µM	> 100 µM	> 100 µM	> 100 µM	> 100 µM	> 100 µM	> 100 µM	> 100 µM	> 100 µM
CCOC(=O)/C(C(N)=O)=C(\O)C(=O)/C(Br)=C(\O)c1ccccc1	51.6 µM	24.6 µM	29.3 µM	34.2 µM	39.8 µM	39.5 µM	> 57.4 µM	41.5 µM	31.7 µM	52.8 µM	43.5 µM
CC(=O)n1cc(C2CC23N=C(c2ccccc2)OC3=O)c2ccccc21 (centres undefined)	44.5 µM	36 µM	34.9 µM	46.4 µM	58.9 µM	35.3 µM	> 100 µM	> 100 µM	41.5 µM	51.1 µM	59.9 µM
CC(C)(C)OC(=O)[C@@H]1CCC(=O)N1C1(c2ccccc2)c2ccccc2-c2ccccc21	> 100 µM	> 100 µM	> 100 µM	86.1 µM	> 100 µM	> 100 µM	> 100 µM	> 100 µM	> 100 µM	> 100 µM	> 100 µM
CNc1nnc(CCCCCCCCc2nnc(NC)o2)o1	> 100 µM	31.3 µM	> 100 µM	> 100 µM	> 100 µM	> 100 µM	> 100 µM	78 µM	> 100 µM	> 100 µM	> 100 µM
Cc1cc(S(=O)(=O)Nc2nc3ncccc3[nH]2)c(S)cc1Cl	> 100 µM	> 100 µM	> 100 µM	> 100 µM	> 100 µM	> 100 µM	> 100 µM	> 100 µM	> 100 µM	> 100 µM	> 100 µM
Cc1ccc(S(=O)(=O)N2C[C@@H]3CC[C@]4(CO[Si](C)(C)C(C)(C)C)N[C@@H](c5ccccc5)[C@H]2[C@H]34)cc1	57.1 µM	> 100 µM	> 100 µM	> 100 µM	> 100 µM	> 100 µM	> 100 µM	> 100 µM	> 100 µM	> 100 µM	> 100 µM
NNC(=O)Nc1nc2ccc(NN)cc2[nH]1	89.8 µM	> 100 µM	84.4 µM	> 100 µM	> 100 µM	> 100 µM	> 100 µM	> 100 µM	> 100 µM	> 100 µM	> 100 µM
O=C(Nc1sccc1S(=O)(=O)c1ccc(Cl)cc1)c1ccc(F)cc1F	> 100 µM	65.9 µM	> 100 µM	54 µM	> 100 µM	> 100 µM	53.4 µM	80.1 µM	> 100 µM	43.5 µM	> 100 µM
C#C[C@]1(O)CC[C@H]2[C@@H]3CCC4=C/C(=N/NC(=O)c5cccc6c(=O)c7ccccc7[nH]c56)CCC4[C@H]3CC[C@@]21C (some centres undefined)	> 100 µM	> 100 µM	> 100 µM	> 100 µM	> 100 µM	> 100 µM	> 100 µM	> 100 µM	> 100 µM	> 100 µM	> 100 µM
COC(=O)c1ccccc1C1CN=NC12Cc1c(ccc3c1CCC3)C2=O (centres undefined)	> 100 µM	> 100 µM	> 100 µM	> 100 µM	> 100 µM	> 100 µM	> 100 µM	> 100 µM	> 100 µM	> 100 µM	> 100 µM
CSC(SC)=C(C#N)C(=O)Nc1cccc(Cl)c1	> 100 µM	> 100 µM	> 100 µM	> 100 µM	> 100 µM	> 100 µM	> 100 µM	> 100 µM	> 100 µM	> 100 µM	> 100 µM
COC(=O)[C@H](Cc1c[nH]c2ccccc12)NP(=O)(OCCC#N)OCC1OC(n2cc(C)c(=O)[nH]c2=O)CC1N=[N+]=[N-] (some centres undefined)	> 100 µM	> 100 µM	> 100 µM	> 100 µM	> 100 µM	> 100 µM	> 100 µM	> 100 µM	> 100 µM	> 100 µM	> 100 µM
CCOC(=O)C1CC(C(=O)c2ccccc2)N2c3ccccc3-c3ccccc3C12 (centres undefined)	> 100 µM	> 100 µM	74.2 µM	> 100 µM	> 100 µM	> 100 µM	> 100 µM	> 100 µM	> 100 µM	> 100 µM	> 100 µM
Cn1cccc1-c1ccc(-c2ccc(CO)[se]2)[se]1	5.89 µM	44.5 µM	> 100 µM	> 79.8 µM	> 100 µM	> 100 µM	> 78.3 µM	> 88.1 µM	> 100 µM	> 100 µM	> 100 µM
Cc1nc2cc(F)c(F)cc2[nH]c1=O	> 100 µM	> 100 µM	> 100 µM	> 100 µM	> 100 µM	> 100 µM	> 100 µM	> 100 µM	> 100 µM	> 100 µM	> 100 µM
Cc1cccc2c(N)c3cccc(C(=O)NCC[N+](C)(C)Cc4ccc([N+](=O)[O-])s4)c3nc12	21.9 µM	> 73.8 µM	39.7 µM	21.3 µM	> 100 µM	42.9 µM	> 75.9 µM	32.5 µM	30.5 µM	41.5 µM	17.5 µM
O=C(O)CSc1ccccc1C(=O)O	> 100 µM	> 100 µM	> 100 µM	> 100 µM	> 100 µM	> 100 µM	> 100 µM	> 100 µM	> 100 µM	> 100 µM	> 100 µM
COC(=O)C1=C(OC(=O)/C(=C/c2ccccc2)c2ccc(OC)cc2)C(C(=O)OC)[C@@]2(O)[C@@H](C(=O)OC)[C@H](C)C[C@@H]1[C@@H]2C(=O)OC (some centres undefined)	> 100 µM	> 100 µM	> 100 µM	90.8 µM	> 100 µM	> 100 µM	> 100 µM	> 100 µM	> 100 µM	> 100 µM	> 100 µM
C[C@]12CC[C@H]3[C@@H](CCC4=CC(=O)C=C[C@@]43OC(=O)C(F)(F)F)[C@@H]1CCC2=O	> 100 µM	> 100 µM	> 100 µM	> 100 µM	> 100 µM	> 100 µM	> 100 µM	> 100 µM	> 100 µM	> 100 µM	> 100 µM
